Source: patent US20210346359A1, “Use of CFTR Modulators For Treating Cerebrovascular Conditions” (Qanatpharma AG, priority 2018, published 2021)
“Also recorded” adds a separate entry of the source.

Legend:
CFTR = CFTR (Mus musculus, UniProt P26361); assay: CFTR protein expression in TNF-treated mesenteric artery primary vascular smooth muscle cells; assay type: cell-based; design: mesenteric artery segments were isolated, cut into small pieces and digested with trypsin, collagenase and elastase; endogenous in cells; host or cells: primary mesenteric artery vascular smooth muscle cells; conditions: 48 h TNF 10 ng/ml + C18 6 μmol/L for last 24 h
CFTR, sequence (P26361 whole entry): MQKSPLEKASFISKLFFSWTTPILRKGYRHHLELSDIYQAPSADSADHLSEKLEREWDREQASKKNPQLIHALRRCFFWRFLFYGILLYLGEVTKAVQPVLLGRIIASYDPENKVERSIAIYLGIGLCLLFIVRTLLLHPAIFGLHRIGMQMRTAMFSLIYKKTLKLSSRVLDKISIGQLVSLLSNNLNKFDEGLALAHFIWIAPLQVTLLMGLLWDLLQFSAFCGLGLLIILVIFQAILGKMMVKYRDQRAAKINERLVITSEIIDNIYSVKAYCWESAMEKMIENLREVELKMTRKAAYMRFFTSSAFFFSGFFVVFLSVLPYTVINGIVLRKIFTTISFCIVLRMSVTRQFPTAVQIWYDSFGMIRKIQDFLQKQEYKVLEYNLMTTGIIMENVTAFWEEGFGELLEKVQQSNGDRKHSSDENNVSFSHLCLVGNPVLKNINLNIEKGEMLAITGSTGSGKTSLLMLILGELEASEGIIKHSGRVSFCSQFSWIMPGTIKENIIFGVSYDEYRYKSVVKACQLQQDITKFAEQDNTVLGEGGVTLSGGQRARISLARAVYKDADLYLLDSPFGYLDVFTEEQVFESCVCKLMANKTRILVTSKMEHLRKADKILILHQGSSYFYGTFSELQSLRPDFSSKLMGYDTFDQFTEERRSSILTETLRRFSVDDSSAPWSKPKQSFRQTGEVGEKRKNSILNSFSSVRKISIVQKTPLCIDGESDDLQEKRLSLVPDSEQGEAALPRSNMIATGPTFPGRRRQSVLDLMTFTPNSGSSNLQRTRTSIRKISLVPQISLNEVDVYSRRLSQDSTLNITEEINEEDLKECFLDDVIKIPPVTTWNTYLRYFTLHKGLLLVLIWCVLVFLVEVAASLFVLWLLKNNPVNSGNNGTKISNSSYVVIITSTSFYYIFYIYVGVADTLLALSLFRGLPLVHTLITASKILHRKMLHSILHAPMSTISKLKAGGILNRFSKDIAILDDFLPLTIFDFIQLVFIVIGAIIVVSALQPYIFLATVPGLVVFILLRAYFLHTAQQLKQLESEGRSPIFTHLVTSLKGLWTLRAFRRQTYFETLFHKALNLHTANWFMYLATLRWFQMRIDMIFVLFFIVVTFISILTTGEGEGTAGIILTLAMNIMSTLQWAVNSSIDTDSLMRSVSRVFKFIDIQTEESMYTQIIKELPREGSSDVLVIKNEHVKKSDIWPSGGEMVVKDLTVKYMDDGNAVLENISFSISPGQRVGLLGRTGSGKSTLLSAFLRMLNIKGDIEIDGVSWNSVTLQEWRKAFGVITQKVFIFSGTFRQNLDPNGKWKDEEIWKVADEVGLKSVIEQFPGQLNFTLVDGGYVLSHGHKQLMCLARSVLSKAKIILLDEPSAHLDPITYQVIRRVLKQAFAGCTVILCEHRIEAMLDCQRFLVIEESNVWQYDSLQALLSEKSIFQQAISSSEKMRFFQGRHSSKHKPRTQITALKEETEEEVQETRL
Protocol: Procedures for isolating and culturing mesenteric artery smooth muscle cells were carried out as described in (10). Briefly, mesenteric artery segments were isolated, cut into small pieces and digested with trypsin, collagenase and elastase. The resulting cell suspension was washed several times in phosphate-buffered saline and plated in Dulbecco's Modified Eagle Medium (DMEM) culture media containing 10% fetal bovine serum and 1% penicillin-streptomycin. Cell cultures were maintained at 37° C. with 5% CO2 and split at […] cells seeding density. Baby hamster kidney fibroblast cells stably expressing wild-type human CFTR (10,17) were maintained in DMEM/F12 media containing 5% fetal bovine serum and 250 μmol/L methotrexate (which activates the CFTR transgene promoter). Cells were maintained under standard cell culture conditions at 37° C. with 5% CO2.
Western blots for CFTR were completed as previously described (12, 18). […]
The primary antibodies were conjugated with either peroxidase-labeled donkey anti-rabbit IgG (GE Healthcare Amersham (Piscataway, USA) cat# NA934) or peroxidase-labeled goat anti-mouse IgG (GE Healthcare Amersham cat# NA931) secondary antibodies. […] Developed films were evaluated densitometrically using “Image J” software (freely available from the NIH); digital images were evaluated with Image Lab software (Bio-Rad).

[1] = Global hemodynamic parameters (CO, TPR, MAP) in heart failure mice; assay type: in vivo, mouse; conditions: HF mice, 3 mg/kg daily for 2 days
Protocol: As previously described (9-11), echocardiographic measurements were collected with a 30 MHz mechanical sector transducer (Vevo 770; Visual Sonics, Toronto, Canada) in conjunction with the mean arterial pressure (MAP) measurements (Millar SPR-671 micro-tip mouse pressure catheter; Inter V Medical Inc., Montreal, Canada). The aortic flow velocity-time integral (VTI) was measured using pulse wave Doppler just above the aortic root. The aortic cross-sectional area (CSA) was calculated from the aortic root dimension (ARD): CSA=π(ARD/2)2. Stroke volume (SV), CO and TPR were calculated as: SV=CSA×VTI; CO=SV×HR; TPR=MAP/CO.
Myocardial infarction: HF was induced by surgical ligation of the left anterior descending coronary artery (3). Briefly, mice were anaesthetized with isoflurane, intubated with a 20-gauge angiocatheter and ventilated with room air. Under sterile conditions, the thorax and pericardium were opened, and the left anterior descending coronary artery was permanently ligated with 7-0 silk suture (Deknatel: Fall River, USA). In sham-operated controls, the thorax and pericardium were opened, but the left anterior descending coronary artery was not ligated. Following the procedure, the chest was closed and the mice were extubated upon spontaneous respiration. Posterior cerebral arteries (PCAs) were isolated 4-6 weeks post-infarction.

mice with heart failure = assay: Golgi stain / Sholl analysis of cortical neuron dendrite morphology in heart failure mice; assay type: in vivo, mouse; conditions: 3 mg/kg i.p. daily for 2 weeks
Description: Brains were perfused with heparinized saline via transcardiac perfusion, isolated and processed stained utilizing a commercially available Rapid GolgiStain kit (FD NeuroTechnologies Inc.; Columbia, USA). The kit uses a modified Golgi-Cox staining procedure originally described by Glaser and Van der Loos (24). Briefly, isolated brain tissue samples were immersed in a kit-provided solution containing mercuric chloride, potassium dichromate and potassium chromate in the dark for 8 days; this was followed by a 6-day incubation with tissue protection solution. The brain samples were then washed, embedded in 4% low gelling agarose, sectioned in the coronal plane (150 μm thickness; Campden Instruments 7000 smz-2 vibrating microtome) and mounted onto gelatin-coated glass slides. The staining procedure was then completed using kit-provided developing/staining reagents, according to the manufacturer's instructions. […] We analyzed both the basal and apical dendrite networks of pyramidal cortical neurons from the frontal cortex, using a quantitative approach originally described by Shall (25). We utilized Image J software coupled with the semi-automated Simple Neurite Tracer plugin (both freely available from the NIH) to identify and digitally isolate the dendrite networks of a single cortical neuron from a 200× magnification hyperstack image. The center of the soma was marked with the pointer tool; dendrite morphology was then characterized by Sholl analysis (see https://imagej.net/Sholl_Analysis, version 3.7.4), using 5 μm intervals to a maximal radius of 300 μm. This analysis characterizes dendrite morphology in terms of dendrite intersections (i.e., branching) and dendrite length. For each treatment group, 2-4 neurons per mouse from 4 mice were analyzed under blinded conditions. To assess dendritic spine density (i.e., the number of small protrusions found on dendrites), we imaged 3rd branch order dendritic segments at 100× magnification. Spine density was measured as the number of spines per segment for the following segments: 20-50 μm from soma; 30-60 μm from soma; 50-80 μm from soma; and 60-100 μm from soma). This “sliding measurement” approach permits an assessment of how spine density changes over the length of dendritic branch. For each treatment group, spine density was measured in 2-4 pyramidal cortical neurons (2-4 third order branches per neuron) per mouse from 3-4 mice per group, under blinded conditions.

SMILES: O=C(Nc1ncc(C(c2ccccc2Cl)N2CCC(O)C2)s1)C1(c2ccc3c(c2)OCO3)CC1 (stereo not drawn) [C18, 1-(benzo[d][1,3]dioxol-5-yl)-N-(5-((2-chlorophenyl)(3-hydroxypyrrolidin-1-yl)methyl)thiazol-2-yl)cyclopropanecarboxamide]
- CFTR protein expression after TNF down-regulation (CFTR): reverses the decline; also recorded: fully restores
- cardiac injury induced by left anterior descending coronary artery ligation [1]: does not ameliorate
- mean arterial pressure (MAP) [1]: no effect
- total peripheral resistance (TPR) ([1]; 3 mg/kg): no effect; also recorded: lack of effect
- mean apical dendrite length (maximum radius), HF-induced reduction (mice with heart failure): normalized
- mean basal dendrite length (maximum radius), HF-induced reduction (mice with heart failure): normalized
- apical dendrite branching morphology (Sholl analysis) (mice with heart failure; HF mice, sham vs HF vs HF+C18): No differences
- basal dendrite branching morphology (Sholl analysis) (mice with heart failure; HF mice, sham vs HF vs HF+C18): no differences
- mean apical dendrite spine density at 60-100 μm from soma, group difference (mice with heart failure; HF mice, sham vs HF vs HF+C18): does not reach statistical significance
